As a reminder, the Ki is a measure of affinity in units of concentration, obtained from inhibition or displacement.

Molecules are shown by their SMILES. Structures can show the parent of a compound that is named as a salt.

This note sets out measurements from US10899774B2, “IRAK4 modulators” (Genentech, Inc., priority 2017, dated 2021).

Chain of human IRAK4 (Q9NWZ3 whole entry, the tested form may be a part): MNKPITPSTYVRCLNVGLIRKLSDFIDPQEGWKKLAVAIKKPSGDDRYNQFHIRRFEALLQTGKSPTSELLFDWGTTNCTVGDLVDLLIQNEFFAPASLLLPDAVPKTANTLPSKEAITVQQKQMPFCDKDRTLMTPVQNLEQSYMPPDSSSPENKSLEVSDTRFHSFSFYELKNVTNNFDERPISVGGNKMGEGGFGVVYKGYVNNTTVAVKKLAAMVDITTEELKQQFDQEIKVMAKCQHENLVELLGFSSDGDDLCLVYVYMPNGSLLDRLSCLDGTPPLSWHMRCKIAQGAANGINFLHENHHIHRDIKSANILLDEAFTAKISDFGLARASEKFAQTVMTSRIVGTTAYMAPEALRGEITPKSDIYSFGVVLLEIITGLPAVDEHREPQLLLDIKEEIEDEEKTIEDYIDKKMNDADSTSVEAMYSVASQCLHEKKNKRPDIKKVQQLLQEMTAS

This experiment addresses human IRAK4 (Homo sapiens (Human), UniProt Q9NWZ3). In words: IRAK4 kinase inhibition, Transcreener fluorescence polarization (ADP detection). To be noted: recombinant full-length His6-IRAK4; 1.25 nM IRAK4; 125 μM ATP; 90 min; ATP Km 642 μM. In kind it is biochemical. Here is the method: Compounds were assayed for inhibition of human IRAK4 and IRAK1 catalytic activity using recombinant enzyme produced from insect cells. Full-length IRAK4 protein, carrying an N-terminal His6-Tag, was obtained from Life Technologies (Carlsbad, Calif., USA). The IRAK1 construct was produced internally and was comprised of IRAK1 residues Arg194 to Ser712, preceded by an NH2-terminal His6 tag and the coding sequence for glutathione-S-transferase.
Kinase activities were assayed using the Transcreener-Fluorecescence polarization platform (BelBrook Labs, Madison, Wis., USA) that measures amounts of the reaction product, ADP.
384 well assay plates spotted with compound received 4 μl of a 2× substrate (ATP+peptide) mix in reaction buffer, followed by 4 μl of 2× enzyme diluted in reaction buffer.
As to `CC1(C)Cc2cc(NC(=O)c3ccn(-c4ccnc(C#N)c4)n3)c(N3CCOCC3)cc2O1` [Example 63, 1-(2-Cyano-4-pyridyl)-N-(2,2-dimethyl-6-morpholino-3H-benzofuran-5-yl)pyrazole-3-carboxamide], the Ki worked out at 16 nM.

For the compound `CC1(C)Cc2cc(NC(=O)c3cncc4c3nnn4CCO)c(N3CCOCC3)cc2O1` [Example 64, N-(2,2-Dimethyl-6-morpholino-3H-benzofuran-5-yl)-3-(2-hydroxyethyl)triazolo[4,5-c]pyridine-7-carboxamide], the Ki is 350 nM.

Regarding `Cc1cn2cccc(C(=O)Nc3cc4c(cc3N3CCOCC3)OC(C)(C)C4)c2n1` [Example 65, N-(2,2-Dimethyl-6-morpholino-3H-benzofuran-5-yl)-2-methyl-imidazo[1,2-a]pyridine-8-carboxamide], the Ki is 270 nM.

Turning to `CC1(C)Cc2cc(NC(=O)c3ccn(-c4ccc(=O)[nH]c4)n3)c(N3CCOCC3)cc2O1` [Example 66, N-(2,2-Dimethyl-6-morpholino-3H-benzofuran-5-yl)-1-(6-oxo-1H-pyridin-3-yl)pyrazole-3-carboxamide], the Ki came to 14 nM.

Take `CC1(CO)Cc2cc(NC(=O)c3csc4cc(C#N)cnc34)c(N3CCOCC3)cc2O1` (stereo not shown) [Example 69, 6-Cyano-N-(2-(hydroxymethyl)-2-methyl-6-morpholino-2,3-dihydrobenzofuran-5-yl)thieno[3,2-b]pyridine-3-carboxamide Formate]: the Ki is 28 nM.

On to `CC1(C)Cc2cc(NC(=O)c3ccn(-c4cc[nH]c(=O)c4)n3)c(N3CCOCC3)cc2O1` [Example 70, N-(2,2-Dimethyl-6-morpholino-3H-benzofuran-5-yl)-1-(2-oxo-1H-pyridin-4-yl)pyrazole-3-carboxamide], for which the Ki turned out to be 2.7 nM.

In the case of `CC1(C)Cc2cc(NC(=O)c3cnn4ccc(=O)[nH]c34)c(N3CCOCC3)cc2O1` [Example 71, N-(2,2-dimethyl-6-morpholino-3H-benzofuran-5-yl)-5-oxo-4H-pyrazolo[1,5-a]pyrimidine-3-carboxamide], the Ki is 930 nM.
